Assays:
FLAG-NR0B1 (WT) = biological target: T1, FLAG-NR0B1 (WT) (Homo sapiens, UniProt P51843); assay: Gel-based BPK-29yne labeling of NR0B1 and competition in HEK293T cells; format: cell-based; settings: 30 min, in-gel fluorescence
T1 construct: expressed in transfected cells; host or cells: HEK-293T, transient, pRK5-based vector
Experimental: (§1) 4×10^6 HEK-293T cells were seeded in poly-L-lysine coated 10 cm plates and transfected the next day with 5 μg of FLAG-NR0B1, FLAG-NR0B1-C274V, or FLAG-METAP2 cDNA in a pRK5-based expression vector. 48 h after transfection, cells were treated with indicated concentrations of BPK-29 or control compound BPK-27 for 3 h at 37° C. in DMEM containing 10% FBS and supplements as described in Cell Culture. BPK-29yne (5 μM) was then added and incubated for an additional 30 min at 37° C. FLAG immunoprecipitates were prepared as described above and following washes, the FLAG resin was resuspended in PBS (100 μL). To each sample, 12 μL of a freshly prepared “click” reagent mixture was added to conjugate the fluorophore to probe-labeled proteins. […] Samples were boiled for 5 min and proteins were resolved by SDS-PAGE (10% acrylamide), and visualized by in-gel fluorescence on a Bio-Rad ChemiDoc MP flatbed fluorescence scanner. Samples were also analyzed by immunoblotting. Recombinantly expressed FLAG-tagged protein levels were determined with the FLAG antibody (Sigma). Gel fluorescence and imaging was processed using Image Lab (v 5.2.1) software.

FLAG-NR0B1-C274V = biological target: T2, FLAG-NR0B1-C274V (Homo sapiens, UniProt P51843, C274V); assay: Gel-based BPK-29yne labeling of the NR0B1-C274V mutant in HEK293T cells; format: cell-based; settings: 30 min, in-gel fluorescence
T2 construct: expressed in transfected cells; host or cells: HEK-293T, transient, pRK5-based vector
Experimental: as §1

T1 sequence (P51843 whole entry): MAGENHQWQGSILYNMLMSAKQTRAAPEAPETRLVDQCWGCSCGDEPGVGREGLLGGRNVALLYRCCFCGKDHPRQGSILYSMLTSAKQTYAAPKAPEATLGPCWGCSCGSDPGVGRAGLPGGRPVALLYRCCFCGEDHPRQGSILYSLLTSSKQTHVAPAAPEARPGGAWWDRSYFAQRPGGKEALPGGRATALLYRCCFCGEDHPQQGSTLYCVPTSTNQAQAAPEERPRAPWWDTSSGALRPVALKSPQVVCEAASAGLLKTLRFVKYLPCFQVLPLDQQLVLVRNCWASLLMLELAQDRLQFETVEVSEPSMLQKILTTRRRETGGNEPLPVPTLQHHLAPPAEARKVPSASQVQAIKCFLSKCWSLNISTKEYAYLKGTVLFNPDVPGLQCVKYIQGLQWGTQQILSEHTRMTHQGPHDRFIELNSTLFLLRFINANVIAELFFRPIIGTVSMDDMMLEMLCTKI
T2 sequence (P51843 whole entry C274V): as the sequence (P51843 whole entry) above, with C274V counted along it

Compound: C#Cc1cccc(CN(C(=O)CCl)C2CCCN(C(=O)c3ccc(N4CCOCC4)cc3)CC2)c1 (centres unmarked) [BPK-29yne, 2-chloro-N-(3-ethynylbenzyl)-N-(1-(4-morpholinobenzoyl)azepan-4-yl)acetamide]
- BPK-29yne labeling of WT-NR0B1 (FLAG-NR0B1 (WT)): labeled WT-NR0B1
- BPK-29yne labeling of NR0B1 C274V mutant (FLAG-NR0B1-C274V): but not a C274V mutant
